Measured values reported in ChEMBL document CHEMBL1146215, “Computer-aided rational drug design: a novel agent (SR13668) designed to mimic the unique anticancer mechanisms of dietary indole-3-carbinol to block Akt signaling” (J Med Chem, 2007).
Calls of active or inactive are those of the source. No cut-off for these calls is given here.

Key:
MCF7 [1] = test: Antitumor activity against MCF7 cells; format: functional, cell-based; conditions: Homo sapiens
MCF7 [2] = test: Inhibition of tumor growth in MCF7 cells xenografted BALB/c mouse at 10 mg/kg/day, po after 30 days; format: functional, Homo sapiens; conditions: MCF7, 720 h
MCF7 [3] = test: Inhibition of tumor growth in MCF7 cells xenografted BALB/c mouse at 10 mg/kg/day, ip after 30 days; format: functional, Homo sapiens; conditions: 720 h, route intraperitoneal
Mus musculus [4] = organism: Mus musculus; test: Genotoxicity by mouse micronucleus test; format: toxicity, organism-based; conditions: in vivo
[5] = molecular target: RAC-beta serine/threonine-protein kinase (Homo sapiens) (UniProt P31751); test: Inhibition of Akt2
Rattus norvegicus [6] = test: Toxicity in Sprague-Dawley rat at 75 mg/kg/day, po after 14 days; format: organism-based; parameters: route oral; conditions: in vivo, 336 h
Homo sapiens = organism: Homo sapiens; test: Inhibition of PI3K
Rattus norvegicus [7] = test: Toxicity in Sprague-Dawley rat at 600 mg/kg/day, po after 14 days; format: organism-based; parameters: route oral; conditions: in vivo, 336 h
MDA-MB-468 = test: Inhibition of serum-stimulated AKT phosphorylation in MDA-MB-468 cells; format: cell-based; conditions: Homo sapiens
Rattus norvegicus [8] = test: Toxicity in Sprague-Dawley rat at 25 mg/kg/day, po after 14 days; format: organism-based; parameters: route oral; conditions: in vivo, 336 h
PC-3 [9] = test: Inhibition of serum-stimulated AKT phosphorylation in PC3 cells; format: cell-based; conditions: Homo sapiens
[10] = molecular target: RAC-gamma serine/threonine-protein kinase (Homo sapiens) (UniProt Q9Y243); test: Inhibition of Akt3
MDA-MB-231 = test: Inhibition of tumor growth in MDA-MB-231 cells xenografted po dosed mouse; format: functional, organism-based; conditions: Homo sapiens
[11] = molecular target: T1, 3-phosphoinositide-dependent protein kinase 1 (Homo sapiens) (UniProt O15530); test: Inhibition of PDK1
T1 sequence (whole entry): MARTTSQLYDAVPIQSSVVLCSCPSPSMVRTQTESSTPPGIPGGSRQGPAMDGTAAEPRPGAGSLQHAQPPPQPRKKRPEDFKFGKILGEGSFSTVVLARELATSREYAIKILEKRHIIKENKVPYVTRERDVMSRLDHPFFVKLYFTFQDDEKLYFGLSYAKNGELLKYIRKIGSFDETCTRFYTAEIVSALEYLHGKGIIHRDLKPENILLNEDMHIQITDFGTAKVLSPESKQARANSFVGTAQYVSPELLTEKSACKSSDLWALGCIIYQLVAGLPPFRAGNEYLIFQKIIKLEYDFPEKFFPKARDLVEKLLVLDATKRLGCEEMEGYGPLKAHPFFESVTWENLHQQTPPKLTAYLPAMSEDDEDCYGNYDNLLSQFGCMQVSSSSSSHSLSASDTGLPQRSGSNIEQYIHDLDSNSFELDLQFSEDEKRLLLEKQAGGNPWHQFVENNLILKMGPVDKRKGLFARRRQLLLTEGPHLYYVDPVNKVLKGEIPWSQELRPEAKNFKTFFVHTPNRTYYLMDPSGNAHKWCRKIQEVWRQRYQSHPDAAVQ

PC-3 [12] = test: Inhibition of tumor growth in PC3 cells xenografted po dosed mouse; format: functional, organism-based; conditions: Homo sapiens
Mus musculus [13] = test: Toxicity assessed as effect on fasting glucose level in mouse at 500 mg/kg/day, po after 14 days; format: organism-based; parameters: route oral; conditions: in vivo, 336 h
Rattus norvegicus [14] = test: Toxicity in Sprague-Dawley rat at 200 mg/kg/day, po after 14 days; format: organism-based; parameters: route oral; conditions: in vivo, 336 h
Mus musculus [15] = test: Toxicity assessed as effect on body weight of mouse at 500 mg/kg/day, po after 14 days; format: organism-based; parameters: route oral; conditions: in vivo, 336 h
SK-OV-3 = test: Inhibition of tumor growth in SKOV3 cells xenografted po dosed mouse; format: functional, organism-based; conditions: Homo sapiens
[16] = molecular target: RAC-alpha serine/threonine-protein kinase (Homo sapiens) (UniProt P31749); test: Inhibition of Akt1
[17] = molecular target: Glycogen synthase kinase-3 beta (Homo sapiens) (UniProt P49841); test: Inhibition of GSK3-beta activity in PC3 cells; format: cell-based; conditions: PC-3
Glycogen synthase kinase-3 beta (Homo sapiens), sequence (P49841 whole entry, looked up): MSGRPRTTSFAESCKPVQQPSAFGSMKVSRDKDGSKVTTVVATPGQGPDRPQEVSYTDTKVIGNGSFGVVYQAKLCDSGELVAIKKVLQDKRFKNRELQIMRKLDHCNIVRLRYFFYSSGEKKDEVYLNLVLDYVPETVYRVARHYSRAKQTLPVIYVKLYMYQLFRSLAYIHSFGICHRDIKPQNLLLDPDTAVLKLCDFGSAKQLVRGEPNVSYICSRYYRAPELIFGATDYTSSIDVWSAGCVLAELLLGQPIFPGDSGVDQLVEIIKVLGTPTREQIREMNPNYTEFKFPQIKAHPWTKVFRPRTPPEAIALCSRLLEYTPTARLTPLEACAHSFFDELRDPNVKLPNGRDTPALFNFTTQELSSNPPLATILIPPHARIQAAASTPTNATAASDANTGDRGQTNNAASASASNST

RAC-gamma serine/threonine-protein kinase (Homo sapiens), sequence (Q9Y243 whole entry): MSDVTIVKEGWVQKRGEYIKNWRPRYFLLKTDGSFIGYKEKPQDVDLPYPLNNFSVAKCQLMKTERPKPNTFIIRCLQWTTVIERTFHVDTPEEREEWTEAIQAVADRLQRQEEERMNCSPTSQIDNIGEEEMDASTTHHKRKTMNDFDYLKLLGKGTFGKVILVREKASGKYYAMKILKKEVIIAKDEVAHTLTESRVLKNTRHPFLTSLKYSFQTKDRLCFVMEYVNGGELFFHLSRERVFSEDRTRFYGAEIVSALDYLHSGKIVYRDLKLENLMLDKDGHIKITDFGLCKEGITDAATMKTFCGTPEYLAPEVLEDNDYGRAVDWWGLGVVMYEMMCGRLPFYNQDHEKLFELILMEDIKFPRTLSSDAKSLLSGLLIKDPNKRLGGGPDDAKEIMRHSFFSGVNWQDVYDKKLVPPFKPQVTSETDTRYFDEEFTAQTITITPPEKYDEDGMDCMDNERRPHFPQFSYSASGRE
RAC-alpha serine/threonine-protein kinase (Homo sapiens), sequence (P31749 whole entry): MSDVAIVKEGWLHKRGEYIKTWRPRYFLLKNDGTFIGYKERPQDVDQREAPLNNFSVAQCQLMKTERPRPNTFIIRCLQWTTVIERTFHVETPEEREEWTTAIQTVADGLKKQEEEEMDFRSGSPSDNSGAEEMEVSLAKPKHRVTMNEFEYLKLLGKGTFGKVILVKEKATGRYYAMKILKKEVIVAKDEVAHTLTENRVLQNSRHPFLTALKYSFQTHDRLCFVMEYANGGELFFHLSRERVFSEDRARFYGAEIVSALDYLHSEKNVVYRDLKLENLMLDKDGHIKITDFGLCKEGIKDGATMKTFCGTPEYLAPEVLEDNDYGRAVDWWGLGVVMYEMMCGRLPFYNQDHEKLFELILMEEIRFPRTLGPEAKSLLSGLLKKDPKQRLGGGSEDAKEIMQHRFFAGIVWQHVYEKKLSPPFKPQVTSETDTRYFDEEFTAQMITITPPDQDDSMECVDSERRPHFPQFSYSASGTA
RAC-beta serine/threonine-protein kinase (Homo sapiens), sequence (P31751 whole entry): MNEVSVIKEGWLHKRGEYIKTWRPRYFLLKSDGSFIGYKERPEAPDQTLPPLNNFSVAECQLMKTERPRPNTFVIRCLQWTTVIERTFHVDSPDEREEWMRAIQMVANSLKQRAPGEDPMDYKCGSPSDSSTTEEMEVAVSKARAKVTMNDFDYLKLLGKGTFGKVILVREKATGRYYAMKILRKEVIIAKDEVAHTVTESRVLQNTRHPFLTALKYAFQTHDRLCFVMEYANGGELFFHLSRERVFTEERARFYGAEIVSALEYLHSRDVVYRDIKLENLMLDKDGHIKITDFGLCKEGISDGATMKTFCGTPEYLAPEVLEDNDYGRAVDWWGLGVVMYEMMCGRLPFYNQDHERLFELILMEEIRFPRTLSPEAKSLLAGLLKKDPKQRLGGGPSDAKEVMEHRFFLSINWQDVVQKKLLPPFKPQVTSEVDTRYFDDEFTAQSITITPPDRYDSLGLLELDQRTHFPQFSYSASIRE

## CCOC(=O)c1ccc2[nH]cc(Cc3c[nH]c4ccc(C(=O)OCC)cc34)c2c1
MCF7 [1]
  IC50: 1.75 µM

## CN(C)C(=O)c1ccc2[nH]cc(Cc3c[nH]c4ccc(C(=O)N(C)C)cc34)c2c1
MCF7 [1]
  IC50: > 10 µM

## CC(C)(c1c[nH]c2ccccc12)c1c[nH]c2ccccc12
MCF7 [1]
  IC50: > 10 µM

## CCOC(=O)c1ccc2[nH]c3c(C(F)(F)C(F)(F)C(F)(F)F)c4[nH]c5ccc(C(=O)OCC)cc5c4cc3c2c1
MCF7 [1]
  IC50: 0.09 µM

## c1cc(-c2c[nH]c3ccccc23)cc(-c2c[nH]c3ccccc23)c1
MCF7 [1]
  IC50: > 10 µM

## CCOC(=O)Oc1c2[nH]c3ccc(C(=O)OCC)cc3c2cc2c1[nH]c1ccc(C(=O)OCC)cc12
MCF7 [1]
  IC50: 0.11 µM

## c1ccc2[nH]c(Cc3cc4ccccc4[nH]3)cc2c1
MCF7 [1]
  IC50: 0.94 µM

## CCOC(=O)Oc1c2[nH]c3ccccc3c2cc2c1[nH]c1ccccc12
MCF7 [2]
  inhibition in vivo at 10 mg/kg/day: 26%
MCF7 [1]
  IC50: 0.08 µM
MCF7 [3]
  inhibition in vivo at 10 mg/kg/day: 43%

## O=C(O)c1ccc2[nH]cc(Cc3c[nH]c4ccc(C(=O)O)cc34)c2c1
MCF7 [1]
  IC50: > 10 µM

## C=C(c1c[nH]c2ccccc12)c1c[nH]c2ccccc12
MCF7 [1]
  IC50: 3.3 µM

## CS(=O)(=O)c1ccc2[nH]cc(Cc3c[nH]c4ccc(S(C)(=O)=O)cc34)c2c1
MCF7 [1]
  IC50: > 10 µM

## c1ccc2c(Cc3c[nH]c4ccccc34)c[nH]c2c1 [ARUNDINE]
MCF7 [1]
  IC50: 5.5 µM

## CCOC(=O)c1ccc2[nH]c3c(OC)c4[nH]c5ccc(C(=O)OCC)cc5c4cc3c2c1 [SR-13668]
Mus musculus [4]
  Activity: Non-toxic
[5]
  Activity: inactive
Rattus norvegicus [6]
  Activity: Non-toxic
Homo sapiens
  Activity: inactive
Rattus norvegicus [7]
  Activity: Non-toxic
MDA-MB-468
  Activity: Active
Rattus norvegicus [8]
  Activity: Non-toxic
PC-3 [9]
  Activity: Active
[10]
  Activity: inactive
MDA-MB-231
  Activity: Active
[11]
  Activity: inactive
PC-3 [12]
  Activity: Active
Mus musculus [13]
  Activity: Active
Rattus norvegicus [14]
  Activity: Non-toxic
Mus musculus [15]
  Activity: Active
SK-OV-3
  Activity: Active
MCF7 [1]
  IC50: 0.19 µM
[16]
  Activity: inactive
[17]
  Activity: Active
